Columns and labels:
[1] = not given; remark: listed apart in the source
[2] = method code SF-AS, from DOI: 10.1248/cpb.17.2558
[3] = method code SF-AS, from DOI: 10.1111/j.2042-7158.1989.tb06480.x, PMID: 2570831; settings: pH 7.4
[4] = method code SF-AS, from DOI: 10.1016/0378-5173(93)90388-v
[5] = not given; remark: listed apart in the source
[6] = not given; remark: listed apart in the source
[7] = method code SF-HPLC, from DOI: 10.1016/j.microc.2003.08.005
[8] = method code SF-HPLC, from DOI: 10.1016/0378-5173(84)90193-5; settings: pH 4.0
[9] = method code SF, from DOI: 10.1016/s0928-0987(00)00099-3, PMID: 10915965; settings: pH 5.0
[10] = not given; remark: listed apart in the source
[11] = method code SF-GLC, from DOI: 10.1002/etc.5620080910
[12] = method code SF-AS, from DOI: 10.1016/s0021-9673(01)89384-5
[13] = pH 7.3
[14] = method code SF-TN, from DOI: 10.2116/analsci.13.897; settings: pH 2.0
[15] = from KURIHARA, Norio.; Fujita, Toshio. (1983). Composition of Partition Coefficients of Polychlorinated Hydrocarbons (Commemoration Issue Dedicated to Professor Yuzo Inouye on the Occasion of his …
[16] = not given; remark: listed apart in the source
[17] = not given; remark: listed apart in the source
[18] = not given; remark: listed apart in the source
[19] = not given; remark: listed apart in the source
[20] = not given; remark: listed apart in the source
[21] = not given; remark: listed apart in the source
[22] = not given; remark: listed apart in the source
[23] = method code SF-AS, from DOI: 10.1016/0041-008x(67)90079-8
[24] = not given; remark: listed apart in the source
[25] = method code SF, from DOI: 10.1016/0165-1218(78)90089-7, PMID: 362190
[26] = method code SF-AS, from Lee, B.; Shin, J.; Lim, M.; Jang, T.; Park, J.; Kim, K.; Kang, W. (1997). Partition Property of 5-Nitrothiopyrimidine Nucleoside. Bull Korean Chem Soc, 18(7)734-736.; settings: pH 7.0
[27] = method code SF-AS, from DOI: 10.1002/etc.5620181211
[28] = method code SF-GLC, from DOI: 10.1016/s0003-2670(00)84505-5
[29] = not given; remark: listed apart in the source
[30] = method code SF-AS, from DOI: 10.1016/0731-7085(96)01773-6, PMID: 8877846
[31] = method code SF, from DOI: 10.1016/0006-2952(91)90449-f, PMID: 1930261; settings: pH 2.0
[32] = from Wang, L.; Xu, L.; Xu, O.; Tian, L.; Zheng, Z. (1989). Simultaneous determination of partition coefficients and acid dissociation constants of some organic dibasic acids and diacidic bases in the …
[33] = not given; remark: listed apart in the source
[34] = method code SF, from DOI: 10.2307/3575246, PMID: 7367588
[35] = method code SF-RC, from DOI: 10.1016/s0969-8051(01)00233-5, PMID: 11518650
[36] = method code SF-AS, from DOI: 10.1248/cpb.40.925
[37] = not given; remark: listed apart in the source
[38] = method code SF-GLC, from DOI: 10.1016/0166-445x(88)90052-5
[39] = not given; remark: listed apart in the source
[40] = method code SF-AS, from DOI: 10.1016/0378-5173(80)90061-7
[41] = method code SF-AS, from DOI: 10.1016/j.bmc.2008.07.057, PMID: 18706818; settings: pH 7.4
[42] = method code SF, from Huang, Q.; Wang, L.; Han, S.; Wang, G.; Gao, H. (1993). Quantitative relation between molecular structures and the hydrophobic parameters of halogenated arenes. Chemical Journal of Chinese …

## O=Cc1ccncc1
other
  logP: 0.23

## Nc1cc(Cl)ccc1Cl
[1]
  logP: 2.62

## CNc1ccc(S(N)(=O)=O)cc1
[2]; pH 5.5
  logD: 0.08

## Cn1cnc2c(N)ncnc21
[3]
  logD: -0.03

## CC1CCC(=O)N1C (stereo unspecified)
[4]
  logP: -0.07

## CCC(C)O (stereo unspecified)
[5]
  logP: 0.81

## Cc1cccc(C)n1
[6]
  logP: 1.63

## Cc1ccc2[nH]nnc2c1
[7]
  logP: 1.89

## CCN1CCCC1=O
[4]
  logP: -0.04

## CCCC(=O)n1c(=O)[nH]cc(F)c1=O
[8]
  logD: 0.67

## COP(=O)(OC)C(C)(O)P(=O)(OC)OC
[9]
  logD: -1.39

## C=CCCCCCC
[10]
  logP: 4.72

## O=[N+]([O-])c1c(Cl)cc(Cl)cc1Cl
[11]
  logP: 3.69

## COP(=O)(OC)C(C)(OC(C)=O)P(=O)(OC)OC
[9]
  logD: -1.05

## Cc1ccc(C)o1
[12]
  logP: 2.24

## O=c1cc(CO)occ1O
[13]
  logD: -0.64

## CCCC=CC(=O)O
[14]
  logD: 1.69

## ClC1=CC(Cl)C(Cl)C(Cl)C1 (stereo unspecified)
[15]
  logP: 3.52

## CC(=O)n1c(=O)[nH]cc(F)c1=O
[8]
  logD: -0.34

## CCCCOC(C)=O
[16]
  logP: 1.69

## Oc1ccc(Cl)cc1
[17]
  logP: 2.43

## Cc1ccc([N+](=O)[O-])cc1
[18]
  logP: 2.4

## CCCCOCC
[19]
  logP: 2.03

## C1CCCCCCC1
[20]
  logP: 3.28

## Nc1c([N+](=O)[O-])ccc2ncccc12
[21]
  logP: 1.61

## CCCC(CO)N1C=NC2C(N)=NC=NC21 (stereo unspecified)
[19]
  logP: 0.66

## CCCC(C)O (stereo unspecified)
[5]
  logP: 1.34

## Oc1cc(Cl)ccc1Cl
[22]
  logP: 3.06

## Clc1ccc(Cl)nc1
[23]
  logP: 2.4

## COc1cc(NCc2ccc3nc(N)nc(N)c3c2C)cc(OC)c1OC
[24]; pH 13.0
  logD: 2.55

## O=[N+]([O-])c1nccn1CC(O)CCl (stereo unspecified)
[25]
  logP: 0.15

## Oc1cccc(F)c1
[22]
  logP: 1.82

## O=[N+]([O-])c1c[nH]c(=S)[nH]c1=S
[26]
  logD: 0.52

## C(=C\c1ccccn1)/c1ccccc1
[27]
  logP: 1.96

## Nc1ncnc2[nH]cnc12
[3]
  logD: -0.05

## c1ccc(-c2nccnn2)cc1
[12]
  logP: 1.71

## Clc1cc(Cl)c(Cl)nc1Cl
[23]
  logP: 3.32

## Clc1ccncc1
other
  logP: 1.37

## CCOC(C)=O
[16]
  logP: 0.53

## Oc1c(Cl)cc(Cl)c(Cl)c1Cl
[28]
  logP: 4.3

## Nc1cccnc1Cl
[27]
  logP: 0.04

## CCCCCCCCC(C)=O
[29]
  logP: 3.78

## C#CCN(C)C(C)Cc1ccc(F)cc1 (stereo unspecified)
[30]
  logP: 3

## CN1C(=O)C(=O)C(=O)N(C)C1=O
[31]
  logD: -0.57

## O=C(O)CCC(=O)O
[32]
  logP: -0.61

## O=C(O)c1ccccn1
[33]
  logP: -1

## CS(=O)CCn1ccnc1[N+](=O)[O-] (stereo unspecified)
[34]
  logP: -1.22

## Clc1ccc2[nH]nnc2c1
[7]
  logP: 2.17

## CCN(CC)CCF
[35]
  logP: 0.94

## Nc1cccc(Cl)c1Cl
[1]
  logP: 2.51

## N#Cc1ccc([N+](=O)[O-])n1CCO
[25]
  logP: 0.6

## O=C(Cn1ccnc1[N+](=O)[O-])NCC(O)CO (stereo unspecified)
[34]
  logP: -1.85

## CCCCC(C)=O
[6]
  logP: 1.39

## NS(=O)(=O)c1ccc(Cl)c(Cl)c1
[2]; pH 2.0
  logD: 1.44

## Cn1cccc1
[36]
  logP: 1.15

## c1ccc(Oc2ccccc2)cc1
[37]
  logP: 3.87

## CCCCC1CO1 (stereo unspecified)
[38]
  logP: 1.95

## CCN(CC)C(=O)SCc1ccc(Cl)cc1
[39]
  logP: 3.78

## O=c1[nH]cnc2nc[nH]c12
[24]
  logP: -0.96

## Nc1cccc(C(=O)O)c1
[32]
  logP: 0.65

## COC(=O)CCCO
[40]
  logP: -0.06

## COC(=O)c1ccoc1
[36]
  logP: 1.28

## Cc1cc(O)no1
[39]
  logP: 0.26

## CCC1(C(N)=O)CCC=[N+]1[O-] (stereo unspecified)
[41]
  logD: -1.25

## CN1C(=O)NC(=O)C(=O)C1=O
[31]
  logD: -1.04

## C1CCCC1
[29]
  logP: 2.8

## COc1cc(Cl)c(Cl)c(Cl)c1O
[28]
  logP: 3.72

## CCCCCBr
[10]
  logP: 3.32

## O=C(O)C1CC=CCC1 (stereo unspecified)
[14]
  logD: 1.69

## Cl[C@@H]1CCCC[C@@H]1Cl
[15]
  logP: 3.18

## C1OC1C1CO1 (stereo unspecified)
[38]
  logP: -0.28

## Cn1cccc(O)c1=O
[13]
  logD: -0.4

## CCC(C)CC
[20]
  logP: 2.8

## O=[N+]([O-])c1cc(Cl)c(Cl)c(Cl)c1Cl
[11]
  logP: 3.93

## On1ccccc1=S
[33]
  logP: 0.4

## Nc1ccc([N+](=O)[O-])cn1
[21]
  logP: 0.65

## O=C1O[C@H]([C@@H](O)CO)C(O)=C1O
[30]
  logP: -1.84

## CN(C)CCF
[35]
  logP: 0.36

## O=C1CCCO1
[40]
  logP: -0.31

## Clc1ccc(Br)cc1
[42]
  logP: 3.83

## Brc1ccccc1Br
[42]
  logP: 4.07

## COc1ccccc1
[17]
  logP: 2.15

## O=[N+]([O-])c1ccccc1
[18]
  logP: 1.86

## ClC1C(Cl)C(Cl)C(Cl)C(Cl)C1Cl (stereo unspecified)
[37]
  logP: 3.67

## O=c1[nH]cc([N+](=O)[O-])c(=O)[nH]1
[26]
  logD: -1.38

## CC1(C(N)=O)CCC=[N+]1[O-] (stereo unspecified)
[41]
  logD: -1.8

— the SangsterLogP compilation
